Experimental data as given in patent publication US20210393655A1, “Vesicular Formulations for Use in the Treatment of Pain or Reduced Mobility of a Joint” (Sequessome Technology Holdings Limited, priority 2012, published 2021).

How the values were obtained:
Assay type in all cases: in vivo, human
[1] = system: patients with osteoarthritis of the knee; assay: Clinical trials in osteoarthritis of the knee: WOMAC physical function subscale
Protocol: (§1) One efficacy measure was the change from baseline to the end of the study in patients' perception of joint stiffness and physical function. In studies CL-033-III-03 and CL-033-III-06, joint stiffness was assessed using two single items describing the severity of stiffness, both of which were measured using an 11-point numerical rating (NRS) on the stiffness subscale of the Western Ontario and McMaster Universities (WOMAC) Osteoarthritis Index (version 3.1) instrument. A measure of physical function was performed in all six studies using the WOMAC Osteoarthritis Index (version 3.1), which consisted of 17 single items describing the difficulty in performing daily activities. Each item was rated on a VAS or an 11-point numerical scale.

[2] = system: patients with osteoarthritis of the knee; assay: Clinical trials in osteoarthritis of the knee: WOMAC stiffness subscale; conditions: study CL-033-III-03; end of 3 month treatment
Protocol: as §1, with “Six clinical trials were conducted with Formulation X on patients with osteoarthritis of the knee. One” for “One”

[3] = system: patients with osteoarthritis of the knee; assay: Clinical trial CL-033-III-03: WOMAC pain subscale
Protocol: as §1, with “Six clinical trials were conducted with Formulation X on patients with osteoarthritis of the knee. One” for “One”
Pain, joint mobility and physical function outcomes were compared in study CL-033-III-03.

[4] = oral celecoxib 100 mg b.i.d. (n = 233), 3 months, CL-033-III-03
[5] = study CL-033-III-03, end of 3 month treatment

Cc1ccc(-c2cc(C(F)(F)F)nn2-c2ccc(S(N)(=O)=O)cc2)cc1 [celecoxib]
Effect size versus oral placebo (Mann-Whitney estimator, MW), WOMAC function subscale score [1, 4]: MW = 0.5949 | Improvement in physical function (WOMAC function) [1, 5]: 38.2% | Reduction in stiffness (WOMAC stiffness) [2]: 37.9% | Effect size versus oral placebo (Mann-Whitney estimator, MW), WOMAC pain subscale score [3, 4]: MW = 0.5873 | Reduction in joint pain (WOMAC pain) [3, 5]: 40.4%
